# Assay results from patent publication US20090162848A1, “Noxin, a novel stress-induced gene involved in cell cycle and apoptosis” (COLD SPRING HARBOR LABORATORY, priority 2007, published 2009).
# Columns and labels:
# Assay type in all cases: cell-based, mouse
# NIH3T3 cells [1] = assay: DNA content (PI flow cytometry) of shRNA-transfected, nocodazole-treated NIH3T3 cells; details: for fraction of cells in the sub-G1 population: nocodazole for 20 h
# Description: For this experiment, NIH3T3 cells were transfected with 1 μg (HPC) or 2 μg (2×HPC) of the HPC shRNA construct, treated with nocodazole for 20 h, collected, stained with PI, and analyzed for DNA content using flow cytometry. The downregulation of noxin using this shRNA construct decreased the fraction of cells in G2/M and increased the fraction of cells in the sub-G1 population: 5.7±0.4% in control cells vs. 7.8±1.3% in cells transfected with 1 μg of HPC, and 8.0±1.7% in cells transfected with 2 μg of HPC (FIG. 20B).
# [2] = system: noxin protein in NIH3T3 cells; assay: Western blot of noxin protein by cell cycle phase and cell cycle inhibitors
# Description: Western blot analysis. Cells or tissues were homogenized in the lysis buffer (10 mM Tris-HCl pH 7.5, 1 mM EDTA, 400 mM NaCl, 0.5% NP40, 5 mM NaF, 0.5 mM sodium orthovanadate, 10% glycerol, 1 mM dithiothreitol, 1 mM PMSF, 1 μg/ml aprotinin, 1 μg/ml leupeptin and 1 μg/ml pepstatin) for 20 min on ice. Following centrifugation, the soluble fraction was collected and protein concentration was determined using the BCA assay kit (Pierce). 50 μg of total protein was separated on an 8% SDS-PAGE gel and transferred to Immobilon-P membrane (Millipore Corporation) by semi-dry blotting. […] The HRP signal was detected using a chemi-luminescence detection kit (SuperSignal Femto Dura Extended Duration Substrate, Pierce) and Hyperfilm X-ray film (Amersham Biosciences).
# The relationship between cell cycle and noxin expression was examined by determining the noxin mRNA levels in cells in various phases of the cell cycle using the methodology as follows: NIH3T3 cells, synchronized by serum starvation (DMEM with 0.5% serum for 24 h) were released from arrest by the addition of 10% serum (corresponds to the 0 h time point). […] Noxin mRNA expression was analyzed using Q-PCR 0, 4, 14, or 20 h after the addition of serum. The cell cycle phase of the cells was determined by flow cytometry in the following manner: […]
# NIH3T3 cells [3] = assay: Nuclear morphology (Hoechst) of shRNA/YFP-actin co-transfected cells; details: co-transfected with YFP-actin, Hoechst stain
# Source text: Panels 21A-D are images of cells that were co-transfected with the HPC or HPF shRNA constructs together with YFP-actin construct and stained with Hoechst. shRNA-transfected cells were identified by the YFP expression. […] The nuclei of cells transfected with HPF and YFP-actin or with YFP-actin alone and the nuclei of non-transfected cells had normal shape (light blue arrowheads). Scale bar: 10 μm.
# noxin = assay: Suppression of FLAG-noxin protein by shRNA constructs (co-transfection, Western blot); details: NIH3T3 cells co-transfected with shRNA, FLAG-noxin and luciferase
# Source text: The role of noxin in normal cells was probed by down regulating its expression using the RNAi approach. Plasmids expressing six different noxin shRNA (FIG. 22, depicted as HPA-HPF) under control of the human U6 promoter were generated as described (Paddison et al., Proc Natl Acad Sci U.S.A. 99:1443-8 (2002)). The 6 hairpin structures correspond to the following noxin nucleotide positions: The target U6 promoter cassette DNA was amplified using a 5′-primer corresponding to the SP6 site at the 5′-end of the U6 promoter cassette and a long 3′ primer complementary to the 3′-end of the promoter and containing sequences for the noxin shRNA and a pol III termination site. The PCR fragments were subcloned into pENTR-TOPO-D vector (Invitrogen) and then transferred into pMSCV-puro vector by a clonase (Invitrogen) reaction. These six, short hairpin RNA (shRNA) constructs were generated and corresponded to different regions of noxin mRNA and their binding efficiency was compared by co-expressing them with recombinant noxin cDNA (FIG. 20A). To select shRNA constructs, six different shRNA constructs (HPA to HPF) were produced and examined for their ability to suppress the expression of noxin protein. […] After normalization, protein samples were analyzed for the expression of FLAG-noxin protein by Western blot.
# NIH3T3 cells [4] = assay: BrdU incorporation (DNA synthesis) in transfected versus untransfected NIH3T3 cells; details: BrdU labeling for 24 h
# Description: In addition, constructs coding for cyan fluorescent protein with a nuclear localization signal (CFP-nuc), yellow fluorescent protein fused to actin (YFP-actin), or vector construct alone were used as controls. Cells were then labeled with BrdU for 24 h and analyzed cells in situ by immunocytochemistry for BrdU and noxin (or other listed proteins) (FIG. 11A-C). In the figures, signals from anti-FLAG antibodies are seen in red; anti-BrdU antibodies are green; Hoechst 33342 (blue) was used for nuclear counter-staining. […] Recombinant protein was detected on a Western blot using the anti-FLAG antibody.
# [5] = system: noxin mRNA in NIH3T3 cells; assay: Q-PCR of noxin mRNA in NIH3T3 cells exposed to stress stimuli; details: for induction of noxin mRNA: NIH3T3 cells exposed for 16 hours, Q-PCR
# Description: The cDNA was diluted, mixed with 2×SYBR Green PCR Master Mix (Applied Biosystems) and 0.3 μM forward and reverse primers, and amplified using the ABI PRISM 7700 Sequence Detection System (Applied Biosystems). Primers (Sigma Genosys) for noxin and β-actin were designed using Primer Express software (Applied Biosystems) assuming the Tm value of 58-60° C. and the amplicon size of 70-150 bp:
# The PCR conditions for the thermal cycler were as follows: denaturation (1 cycle at 95° C. for 10 min), amplification (40 cycles at 95° C. for 15 sec and 60° C. for 1 min). During the amplification, the fluorescence of each sample in the plate was detected in real time and an amplification curve was drawn by Sequence Detection System Software (Applied Biosystems) to get the threshold cycle Cτ, the cycle number at which the curve starts to rise over the background noise. The data from noxin amplifications were normalized using the Cτ value from the β-actin set for each sample and the relative difference in the amount of noxin RNA in untreated and in stress-exposed cells was calculated.
# Noxin is induced not only by NO but also by other known stress stimuli. NIH3T3 cells were exposed for 16 hours to γ-irradiation (γ-IR), UV-irradiation (UV-IR), the chemotherapeutic agent adriamycin (ADR), hydrogen peroxide (H2O2), and a mixture of cytokines (TNF-α, IFN-γ, and IL-1β) which is known to be a potent inducer of reactive oxygen and nitrogen species.
# [6] = system: noxin protein in NIH3T3 cells; assay: Western blot of endogenous noxin protein after stress stimuli; details: anti-noxin Western blot
# Description: Western blot analysis. Cells or tissues were homogenized in the lysis buffer (10 mM Tris-HCl pH 7.5, 1 mM EDTA, 400 mM NaCl, 0.5% NP40, 5 mM NaF, 0.5 mM sodium orthovanadate, 10% glycerol, 1 mM dithiothreitol, 1 mM PMSF, 1 μg/ml aprotinin, 1 μg/ml leupeptin and 1 μg/ml pepstatin) for 20 min on ice. Following centrifugation, the soluble fraction was collected and protein concentration was determined using the BCA assay kit (Pierce). 50 μg of total protein was separated on an 8% SDS-PAGE gel and transferred to Immobilon-P membrane (Millipore Corporation) by semi-dry blotting. The membranes were incubated with anti-noxin antibody (see above) (1:1,000) followed by anti-mouse IgG or anti-rabbit IgG antibody conjugated to horseradish peroxidase (HRP) (1:10,000, Amersham). The HRP signal was detected using a chemi-luminescence detection kit (SuperSignal Femto Dura Extended Duration Substrate, Pierce) and Hyperfilm X-ray film (Amersham Biosciences).
# Furthermore, in the SNAP-, cytokines-, γ-irradiation, and adriamycin-treated cells an additional band of 129 kD was evident.
# noxin mRNA = assay: Northern blot time course of noxin mRNA induction
# Description: Total RNA was extracted from different adult mouse tissues and analyzed for noxin mRNA by Northern hybridization. Northern blot analysis was carried out as follows. Total RNA (10 μg) was separated by denaturing formaldehyde-agarose gel electrophoresis and transferred onto a nylon membrane (Hybond-N^+, Amersham). The membrane was pre-hybridized with hybridization buffer (0.05 M sodium phosphate buffer, 5×SSC, 4×Denhardt's solution, 1% SDS, 50% formamide, 0.1 mg/ml salmon sperm DNA, and 0.2 mg/ml yeast tRNA) for 6 h at 42° C. and hybridized with the same buffer containing 100,000 cpm/ml [α-^32P] dCTP-labeled noxin cDNA probe amplified by PCR from pFLAG-noxin. Following hybridization for 20 h at 42° C., the membrane was washed twice with 2×SSC for 5 min at room temperature, twice with 0.2×SSC for 5 min at 65° C. and twice with 1×SSC with 3% glycerol for 5 min at room temperature. The membrane was exposed for 3 days at −70° C. using X-OMAT X-ray film (Kodak).
# Noxin was identified as an NO-inducible gene and the time course of its induction by the NO donor SNAP was determined. Noxin mRNA levels as determined by Northern blot started to increase 2 h after the addition of SNAP and reached maximal levels 8 h after the addition (FIG. 6A). The pattern of noxin induction by SNAP was similar to that of a p53-dependent gene mdm2. Results for β-actin are shown as a control.
# [7] = system: MEFs from wild type and noxin-/- mice; assay: BrdU/PI flow cytometry of MEFs released from serum arrest, with SNAP
# Description: Since noxin can induce cell cycle arrest and, in addition, respond to various types of stress stimuli, including NO, the growth characteristics of MEFs isolated from noxin^−/− animals or their wild type (noxin^+/+) littermates were compared. MEFs from wild type and noxin^−/− mice were arrested with low serum (0.1%) culture medium for 24 h and released by adding 10% serum. Cells were either left untreated or exposed to SNAP. At the time of release, BrdU was added to the culture medium and cells were further incubated for 4, 16, or 22 h (FIG. 17, indicated). Cells were collected, stained with PI and analyzed by flow cytometry for BrdU-positive cells (FIG. 17, X-axis: PI, Y-axis: BrdU) and for cell cycle distributions (FIG. 18, X-axis: PI and Y-axis: number of cells) (Fraction P3=G1, Fraction P4=S, Fraction P5=G2/M and Fraction P6=Sub-G1 populations). […]
# The growth of noxin^−/− MEFs under normal conditions (FIG. 17g-i) and after addition of SNAP (FIGS. 17j-l) were similar to that of wild type MEFs (FIG. 17a-c and FIG. 17d-f). However, the fraction of sub-G1 cells was higher in noxin-deficient (noxin^−/−) cells (Fraction P6) at each time point analyzed than in wild type (noxin^+/+) MEFs (13.8, 16.3, and 11.5 vs. 9.7, 5.1, and 3.5%, respectively, FIG. 18 fraction P6).
# [8] = system: noxin protein in NIH3T3 cells; assay: Subcellular localization of endogenous noxin by immunofluorescence; details: antibody against C-terminal region peptide
molecule,measurement,setting,value
COC(=O)Nc1nc2ccc(C(=O)c3cccs3)cc2[nH]1 [nocodazole],cell cycle effect of nocodazole treatment,"NIH3T3 cells [1]; NIH3T3 cells, 20 h",accumulation of cells in the G2/M phase
same,Noxin levels in response to cell cycle inhibitors,[2],induced
C[C@@]1(CO)[C@H](O)CC[C@@]2(C)[C@H]1CC[C@H]1C[C@@H]3C[C@@]12CC[C@]3(O)CO [aphidicolin],Noxin levels in response to cell cycle inhibitors,[2],induced
"HPF: noxin shRNA construct, nt 509-537 (SEQ ID NO: 19) (DNA AAACCCTGGACAGTGGTAGAACTCAGAGC)",nuclear / chromatin morphology of transfected cells,NIH3T3 cells [3],normal shape
same,inhibition of noxin (FLAG-noxin) expression,noxin,no effect
p21/WAF: cdk inhibitor p21/WAF expressed from transfected plasmid,"fraction of BrdU-positive cells in transfected cells, % of the value for the untransfected cells",NIH3T3 cells [4],39%
COc1cccc2c1C(=O)c1c(O)c3c(c(O)c1C2=O)C[C@@](O)(C(=O)CO)C[C@@H]3O[C@H]1C[C@H](N)[C@H](O)[C@H](C)O1 [adriamycin],induction of noxin mRNA,[5],strong induction
same,additional noxin band of 129 kD,[6],evident
same,levels of the 125 kD noxin polypeptide,[6],specifically increased
"HPC: noxin shRNA construct, nt 1163-1191 (SEQ ID NO: 16) (DNA GTTGTCATGAAAGTAGATTGTCTGACTCT)",fraction of cells in G2/M phase,NIH3T3 cells [1]; nocodazole-treated NIH3T3 cells,decreased
same,fraction of cells in the sub-G1 population,NIH3T3 cells [1]; transfected with 1 μg construct,7.8±1.3%
same,fraction of cells in the sub-G1 population,NIH3T3 cells [1]; transfected with 2 μg construct,8.0±1.7%
same,nuclear / chromatin morphology of transfected cells,NIH3T3 cells [3],condensed chromatin structures
same,inhibition of noxin (FLAG-noxin) expression,noxin,strongest inhibition
"CC(=O)NC(C(=O)O)C(C)(C)SN=O (racemic) [SNAP, S-nitroso-N-acetyl-D,L-penicillamine]",time after addition at which noxin mRNA levels started to increase,noxin mRNA,2 h
same,time after addition at which noxin mRNA reached maximal levels,noxin mRNA,8 h
same,decrease of the fraction of dividing cells,"[7]; MEFs released from low serum arrest, BrdU",95.5%
same,effect on sub-G1 fraction (Fraction P6),[7]; noxin+/+ or noxin-/- MEFs,did not noticeably affect
same,localization of endogenous noxin protein after exposure,[8],predominantly nuclear localization
same,additional noxin band of 129 kD,[6],evident
same,levels of the 125 kD noxin polypeptide,[6],specifically increased
"OO [H2O2, hydrogen peroxide]",induction of noxin mRNA,[5],strong induction
same,noxin mRNA level versus unstimulated cells,"[5]; NIH3T3 cells, stress exposure",13 fold
same,levels of the 125 kD noxin polypeptide,[6],specifically increased
